These results are taken from patent US11591353B2 (Mindset Pharma Inc., priority 2020, dated 2023).

Data set [1] concerns the target human 5-HT2A (h5-HT2A) receptor (Homo sapiens (Human), UniProt P28223). In words: FLIPR assay, human 5-HT2A receptor under agonist mode. In kind it is cell-based. The method, then:
• I. Assessment of the activated effect of exemplary compounds of Formula I targeting on human 5-HT2A (h5-HT2A) receptor under agonist mode: Compound Preparation and Assay Controls I.a. Reagent and Materials:
1. Culture the cells in cell culture medium (DMEM containing 10% FBS 1× penicillin-streptomycin 300 μg/ml G418 and 100 μg/ml hygromycin B) at 37° C., 5% (v/v) CO2.
2. One day before the assays, detach the cell using TrypLE™ Express and count cells using cell counter.
3. Seed 20000 cells/well in 30 μl/well culture medium to a 384-well cell plate and incubate the cells overnight at 37° C., 5% (v/v) CO2.
4. On the assay day, prepare 2× dye solution following the manual of the FLIPR® Calcium 6 Assay Kit: i. Dilute the dye with assay buffer (20 mM HEPES in 1×HBSS, PH7.4); ii. Add probenecid to the final concentration of 5 mM; iii. Vortex vigorously for 1-2 minutes.
5. Medium from cell plate by flicking the cell plate on towel papers.
6. Add 10 μl of assay buffer and 10 μl of 2× dye solution to each well of the cell plate.
7. Put the cell plate on plate shaker, agitate the plate at 600 rpm for 2 minutes. Incubate the plate at 37° C. for 2 hours followed by additional 15-minute incubation at 25° C.
8. Prepare 3× compound in assay buffer: a. Dilute reference compounds to required concentration with DMSO. Add the compounds to a 384-well compound plate; b. Perform serial dilutions; c. Add 10 mM test compounds to the compound plate, perform 3-fold serial dilutions. d. […] Add 20 μl/well assay buffer to the compound plate; f. Mix the plate on plate shaker for 2 mins;
i. The normalized fluorescence reading (RFU) is calculated as shown follow, while Fmax and Fmin stand for maximum and minimum of calcium signal during defined time window: RFU=Fmax−Fmin
ii. Calculate the percentage activation by using following equation: […]
iii. Calculate EC50 by fitting % activation against log of compound concentrations with Hill equation using XLfit.

Data set [2] can be described thus: In vivo pharmacokinetics of I-28 and its metabolite I-45 in mice (i.v. and p.o.). Also noted: species or system Male C57 BL/6 mice. The method, then: Male C57 BL/6 mice (25-30 g) from Charles River Labs were acclimatized for a minimum of 5 days prior to dosing. Body weights were recorded on the day of dosing.
Animals dosed p.o. were deprived of food overnight and fed ˜2 h following dosing.
Formulations were administered intravenously (i.v.) via the tail vein or orally (p.o.) by gavage with disposable feeding needles.
Serial blood samples were collected via tail snip. Terminal blood samples were collected under isoflurane anesthesia by cardiac puncture.
All blood samples were transferred into K2EDTA tubes on wet ice and centrifuged within 5 min (3200×g for 5 min at 4° C.) to obtain plasma. Plasma were stored at −80° C. until analysis.
AB Sciex QTRAP 4000 or 6500 MS/MS system equipped with an LC system with a binary pump, a solvent degasser, a thermostated column compartment and a multiplate autosampler. i. Analysis software: Phoenix® WinNonlin® 8.2 (Pharsight, Certara, Mountainview, Calif.) ii. Analysis methods: non-compartmental analysis, linear up/log down trapezoidal rule iii. PK parameters: C0, t1/2, AUC0-tlast, AUC0-∞, CL, VSS, MRT, tmax(po), Cmax(po), F, as appropriate C0 concentration extrapolated to time zero following an i.v. dose tmax time at which maximum concentration is observed Cmax maximum observed concentration Apparent t1/2 apparent terminal half-life area under the concentration vs time curve from time 0 to the time of the last AUC0-tlast measurable concentration AUC0-inf area under the concentration vs time curve from time 0 to infinity CL systemic clearance MRT0-inf mean residence time from time zero to infinity VSS steady-state volume of distribution F bioavailability=(Dose^iv*AUC^po)/(Dose^po*AUC^iv)*100

A short description of data set [3]: Liver microsomes stability, rat. Conditions: for half-life at 2 μM / microsomal CLint at 2 μM: male, rat, microsomes; for Remaining Percentage (%) after 60 min Rat: with NADPH, 2 μM, 0.5 mg/mL microsomes. How it is done: (§1) The objective of this study was to estimate in vitro metabolic stability of I-12 in pooled human, male rat and male mouse liver microsomes. The concentrations of parent compounds in reaction systems were evaluated by LC-MS/MS for estimating the stability in pooled human, male rat and male mouse liver microsomes. The in vitro intrinsic clearances of test compounds were determined as well.
(§2) A master solution in the “Incubation Plate” containing phosphate buffer, ultra-pure H2O, MgCl2 solution and liver microsomes was made according to Table-3. The mixture was pre-warmed at 37° C. water bath for 5 minutes.
(§3) 40 μL of 10 mM NADPH solution was added to each well. The final concentration of NADPH was 1 mM. The negative control samples were prepared by replacing NADPH with 40 μL of ultra-pure H2O. Samples were prepared in duplicate. Negative controls were prepared in singlet.
(§4) The reaction was started with the addition of 4 μL of 200 μM exemplary test compounds of the application or control compounds to each master solution to get the final concentration of 2 μM. This study was performed in duplicate.
(§5) Aliquots of 50 μL were taken from the reaction solution at 0, 15, 30, 45 and 60 minutes. The reaction solutions were stopped by the addition of 4 volumes of cold methanol with IS (100 nM alprazolam, 200 nM imipramine, 200 nM labetalol and 2 μM ketoprofen). Samples were centrifuged at 3,220 g for 40 minutes. Aliquot of 90 μL of the supernatant was mixed with 90 μL of ultra-pure H2O and then was used for LC-MS/MS analysis.
(§6) LC/MS analysis was performed for all samples from this study using a Shimadzu liquid chromatograph separation system equipped with degasser DGU-20A5R; solvent delivery unit LC-30AD; system controller SIL-30AC; column oven CTO-30A; CTC Analytics HTC PAL System. Mass spectrometric analysis was performed using an Triple Quad™ 5500 instrument.
(§7) All calculations were carried out using Microsoft Excel. Peak area ratios of test compound to internal standard (listed in the below table) were determined from extracted ion chromatograms.
(§8) All calculations were carried out using Microsoft Excel. Peak areas were determined from extracted ion chromatograms. The slope value, k, was determined by linear regression of the natural logarithm of the remaining percentage of the parent drug vs. incubation time curve.
(§9) Conversion of the in vitro t1/2 (min) into the in vitro intrinsic clearance (in vitro CLint, in μL/min/mg proteins) was done using the following equation (mean of duplicate determinations): […]
On the technique in general: Liver microsomes are a subcellular fraction often used to study metabolism.

The nature of data set [4]: Liver microsomes stability, human. The following applies: for half-life at 2 μM / microsomal CLint at 2 μM: microsomes; for Remaining Percentage (%) after 60 min Human: with NADPH, 2 μM, 0.5 mg/mL microsomes. The method, then: as §1, §2, §3, §4, §5, §6, §7, §8, §9
Data set [5] can be described thus: Liver microsomes stability, mouse. The following applies: for half-life at 2 μM / microsomal CLint at 2 μM: male, mouse, microsomes; for Remaining Percentage (%) after 60 min Mouse: with NADPH, 2 μM, 0.5 mg/mL microsomes. The method, then:
as §1, §2, §3, §4, §5, §6, §7, §8, §9

The mark [6] stands for this setting: male, C57 BL/6, iv, i.v., I-28 2.2 mg/kg, I-28 in mouse plasma, n = 2.
Setting [7] is: i.v., Metabolite (I-45) alone 1 mg/kg, mouse plasma.
[8] abbreviates: p.o., Metabolite (I-45) alone 10 mg/kg, mouse plasma.

What is called EC50 is the midpoint of the concentration-response curve. For orientation: AUC(0-inf) means total exposure, with the tail of the curve extrapolated. As usually defined, the Tmax is the time at which the peak concentration occurs. In general, Cmax refers to the peak of the concentration-time curve. Usually microsomal CLint stands for a measure of how fast metabolising enzymes remove a compound, apart from limits set by blood flow. Higher therefore signals faster metabolism.

In data set [1], `[2H]C([2H])([2H])N(C([2H])([2H])[2H])C([2H])([2H])C([2H])([2H])c1c[nH]c2cccc(OC(=O)CCCCCCC/C=C\C/C=C\CCCCC)c12` [Compound I-28, 3-(2-(bis(methyl-d3)amino)ethyl-1,1,2,2-d4)-1H-indol-4-yl (9Z,12Z)-octadeca-9,12-dienoate] displayed an EC50 of 0.965 µM. For the same compound, the “AUC0-inf/Dose (h*kg*ng/mL/mg)” value in data set [2] (i.v., I-28 2.2 mg/kg, I-28 in mouse plasma, n = 2) is on record as 62.1 (n = 2) h*kg*ng/mL/mg. In data set [2] (male, C57 BL/6, iv, i.v., I-28 2.2 mg/kg (equimolar to 1 mg/kg metabolite), I-28 in mouse plasma), the C0 was determined as 0.448 ± 0.411 µg/mL. Moreover, in data set [2] (setting [6]), the total exposure AUC(0-inf) is 0.137 µg·h/mL and the clearance is 23.1 L/h/kg. Also, in data set [2] (male, C57 BL/6, iv, i.v., I-28 2.2 mg/kg, I-28 in mouse plasma, n = 2, read-out: Apparent t1/2 (converted)), the half-life is 4.92 h. The MRT inf in data set [2] (male, C57 BL/6, iv, i.v., I-28 2.2 mg/kg, I-28 in mouse plasma, n = 2, read-out: MRT0-inf) is 0.977 h. Moreover, in data set [2] (male, C57 BL/6, iv, i.v., I-28 2.2 mg/kg, I-28 in mouse plasma, n = 2, read-out: VSS), the Vd worked out at 17 L/kg. Further, in data set [2] (male, C57 BL/6, iv, i.v., I-28 2.2 mg/kg, I-28 in mouse plasma, read-out: AUC0-tlast), the AUC(0-t) was found to be 0.11 ± 0.0859 µg·h/mL. Moreover, in data set [2] (male, C57 BL/6, po, p.o., I-28 22 mg/kg (equimolar to 10 mg/kg metabolite), I-28 in mouse plasma), the Tmax turned out to be 2.17 ± 3.32 h. The Cmax in data set [2] (male, C57 BL/6, po, p.o., I-28 22 mg/kg, I-28 in mouse plasma) was 0.00106 ± 0.000447 µg/mL. In addition, the “Cmax/Dose” value in data set [2] (p.o., I-28 22 mg/kg, I-28 in mouse plasma) came out at 0.0482 ± 0.0203 kg·ng/mL/mg. Besides, in data set [3], the half-life at 2 μM amounted to 0.659 h, the microsomal CLint at 2 μM came out at 35.1 µL/min/mg and the “Remaining Percentage (%) after 60 min Rat” value came out at 34.92%. In data set [4] (human), this compound showed a half-life at 2 μM of 2.23 h and a microsomal CLint at 2 μM of 10.4 µL/min/mg. For the same compound, the “metabolic stability in liver microsomes (in words)” value in data set [4] (human, rat and mouse liver microsomes, 60 minute) is on record as “rapidly metabolized”. Moreover, in data set [4], the “Remaining Percentage (%) after 60 min Human” value is 73.27%. In data set [5], the half-life at 2 μM worked out at 0.276 h, the intrinsic clearance (microsomal CLint) at 2 μM turned out to be 83.7 µL/min/mg and the “Remaining Percentage (%) after 60 min Mouse” value was found to be 8.12%.

Take `[2H]C([2H])([2H])N(C([2H])([2H])[2H])C([2H])([2H])C([2H])([2H])c1c[nH]c2cccc(O)c12` [Compound I-45, 3-(2-(bis(methyl-d3)amino)ethyl-1,1,2,2-d4)-1H-indol-4-ol]: the “agonist effect on h5-HT2A receptor (in words)” value in data set [1] (agonist mode, FLIPR) is on record as “active agonist”. Further, in data set [2] (setting [7]), the “AUC0-inf/Dose” value was 181 ± 30.8 kg·ng·h/mL/mg and the “Apparent t1/2” value was found to be 5.32 ± 2.99 h. In addition, the C0 in data set [2] (male, C57 BL/6, mouse, plasma, iv, 1 mg/kg) amounted to 0.566 ± 0.085 µg/mL. In addition, in data set [2] (setting [8]), the “AUC0-inf/Dose” value was 79.5 ± 12.1 kg·ng·h/mL/mg, the “Apparent t1/2” value stood at 4.52 ± 0.481 h and the “Cmax/Dose” value is 70.4 ± 12.8 kg·ng/mL/mg. For the same compound, in data set [3], the half-life at 2 μM is 1.76 h, the microsomal CLint at 2 μM amounted to 13.1 µL/min/mg and the “Remaining Percentage (%) after 60 min Rat” value is recorded as 67.47%. In data set [4] (human), this compound returned a half-life at 2 μM of 5.01 h and a microsomal CLint at 2 μM of 4.61 µL/min/mg. Moreover, the “Remaining Percentage (%) after 60 min Human” value in data set [4] was 87.08%. In data set [5], the half-life at 2 μM is 4.09 h, the microsomal CLint at 2 μM worked out at 5.65 µL/min/mg and the “Remaining Percentage (%) after 60 min Mouse” value is given as 84.40%.
